This passage reports EC50 results from article PMC6706627, “Mapping Interactions of Microbial Metabolites with Human G-Protein-Coupled Receptors” (Cell Host & Microbe, 2019).

pEC50: −log10 of the molar value. Where a SMILES comes first, the peptide text is derived from it. Bridges are numbered along the chain shown (N, C = ends). [ ]: non-standard residue; d: D form.

The target of one test is PTGIR (Homo sapiens, UniProt P43119). Kind of test: cell-based. More on the design: species or system recombinant GPCR reporter cell lines; PathHunter beta-arrestin recruitment (beta-galactosidase complementation), chemiluminescence, agonist mode, Eurofins DiscoverX.
Test [1] has as its target T1, GPR109B (Homo sapiens, UniProt P49019).
T1 construct: gene HCAR3
As to the kind of experiment: PathHunter beta-arrestin recruitment assay, dose-response of the known agonist. The test is classed as cell-based. The source says: PathHunter beta-arrestin recruitment assay, dose-response of the known agonist on GPR109B | This previously unknown GPR109B agonist elicited a similar GPCR response to 3-hydroxyoctanoic acid
(In general: Recruitment of arrestin is a read-out of receptor activation apart from second messengers.)

The target of the next test is OXER1 (Homo sapiens, UniProt Q8TDS5). As to the kind of experiment: cell-based. More on the design: species or system recombinant GPCR reporter cell lines; PathHunter beta-arrestin recruitment (beta-galactosidase complementation), chemiluminescence, agonist mode, Eurofins DiscoverX.
A further test deals with T2, EBI2 (Homo sapiens, UniProt P32249).
T2 construct: gene GPR183
As to the kind of experiment: cell-based. More on the design: species or system recombinant GPCR reporter cell lines; PathHunter beta-arrestin recruitment (beta-galactosidase complementation), chemiluminescence, agonist mode, Eurofins DiscoverX. As to conditions: agonist; read-out: RC50 (the source's name).

The target in test [2] is T3, brain angiogenesis factor 1 (BAI1) receptor (Homo sapiens, UniProt O14514).
T3 construct: gene ADGRB1
As to the kind of experiment: PathHunter beta-arrestin recruitment assay in a recombinant reporter cell line, dose-response. The test is classed as cell-based.

A further test concerns the target T4, MRGPRX2 (Homo sapiens, UniProt Q96LB1).
T4 sequence (Q96LB1 1-330): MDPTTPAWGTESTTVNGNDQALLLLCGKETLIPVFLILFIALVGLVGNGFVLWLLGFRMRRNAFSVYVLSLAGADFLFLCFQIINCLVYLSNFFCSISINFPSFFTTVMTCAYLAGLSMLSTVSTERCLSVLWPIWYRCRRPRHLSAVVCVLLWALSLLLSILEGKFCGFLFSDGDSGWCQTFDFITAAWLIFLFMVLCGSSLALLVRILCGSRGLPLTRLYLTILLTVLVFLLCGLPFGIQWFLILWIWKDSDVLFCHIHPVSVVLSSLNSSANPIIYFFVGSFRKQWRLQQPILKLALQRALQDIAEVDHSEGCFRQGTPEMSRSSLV
Kind of test: cell-based. Also noted: species or system recombinant GPCR reporter cell lines; PathHunter beta-arrestin recruitment (beta-galactosidase complementation), chemiluminescence, agonist mode, Eurofins DiscoverX.

For another test, the target named is FFAR1 (Homo sapiens, UniProt O14842). As to the kind of experiment: cell-based. More on the design: species or system recombinant GPCR reporter cell lines; PathHunter beta-arrestin recruitment (beta-galactosidase complementation), chemiluminescence, agonist mode, Eurofins DiscoverX.
The next test has as its target KISS1R (Homo sapiens, UniProt Q969F8). As to the kind of experiment: cell-based. Also noted: species or system recombinant GPCR reporter cell lines; PathHunter beta-arrestin recruitment (beta-galactosidase complementation), chemiluminescence, agonist mode, Eurofins DiscoverX.
Another test addresses T5, GPR119 (Homo sapiens, UniProt Q8TDV5).
T5 sequence (Q8TDV5 1-335): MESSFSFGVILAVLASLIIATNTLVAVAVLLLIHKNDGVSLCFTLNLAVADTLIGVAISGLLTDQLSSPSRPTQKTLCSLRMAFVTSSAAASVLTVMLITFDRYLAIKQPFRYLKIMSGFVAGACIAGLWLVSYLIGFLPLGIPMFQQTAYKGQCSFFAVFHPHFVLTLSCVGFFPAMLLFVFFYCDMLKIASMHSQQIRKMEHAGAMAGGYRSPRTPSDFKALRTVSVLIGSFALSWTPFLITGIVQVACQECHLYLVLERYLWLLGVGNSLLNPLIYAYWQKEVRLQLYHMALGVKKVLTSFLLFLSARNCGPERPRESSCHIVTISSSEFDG
Kind of test: cell-based. More on the design: species or system recombinant GPCR reporter cell lines; PathHunter beta-arrestin recruitment (beta-galactosidase complementation), chemiluminescence, agonist mode, Eurofins DiscoverX.

A further test has as its target T6, CRTH2 (Homo sapiens, UniProt Q9Y5Y4).
T6 construct: gene PTGDR2
T6 sequence (Q9Y5Y4 1-395): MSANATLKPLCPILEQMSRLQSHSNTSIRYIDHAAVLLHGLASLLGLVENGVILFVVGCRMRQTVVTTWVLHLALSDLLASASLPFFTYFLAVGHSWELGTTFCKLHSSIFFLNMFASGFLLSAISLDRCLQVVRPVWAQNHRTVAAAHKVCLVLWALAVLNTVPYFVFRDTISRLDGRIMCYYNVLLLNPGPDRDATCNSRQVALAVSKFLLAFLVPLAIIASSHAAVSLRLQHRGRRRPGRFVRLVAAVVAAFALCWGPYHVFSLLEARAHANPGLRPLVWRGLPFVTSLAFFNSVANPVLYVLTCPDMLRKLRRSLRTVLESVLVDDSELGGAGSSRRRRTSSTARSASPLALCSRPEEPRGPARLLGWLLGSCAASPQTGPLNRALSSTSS
As to the kind of experiment: cell-based. More on the design: species or system recombinant GPCR reporter cell lines; PathHunter beta-arrestin recruitment (beta-galactosidase complementation), chemiluminescence, agonist mode, Eurofins DiscoverX.

The next test concerns the target T7, PTHR2 (Homo sapiens, UniProt P49190).
T7 construct: gene PTH2R
As to the kind of experiment: cell-based. Also noted: species or system recombinant GPCR reporter cell lines; PathHunter beta-arrestin recruitment (beta-galactosidase complementation), chemiluminescence, agonist mode, Eurofins DiscoverX.

Test [3] has as its target T8, urotensin 2 receptor (UTR2) (Homo sapiens, UniProt Q9UKP6).
T8 construct: gene UTS2R
T8 sequence (Q9UKP6 1-389): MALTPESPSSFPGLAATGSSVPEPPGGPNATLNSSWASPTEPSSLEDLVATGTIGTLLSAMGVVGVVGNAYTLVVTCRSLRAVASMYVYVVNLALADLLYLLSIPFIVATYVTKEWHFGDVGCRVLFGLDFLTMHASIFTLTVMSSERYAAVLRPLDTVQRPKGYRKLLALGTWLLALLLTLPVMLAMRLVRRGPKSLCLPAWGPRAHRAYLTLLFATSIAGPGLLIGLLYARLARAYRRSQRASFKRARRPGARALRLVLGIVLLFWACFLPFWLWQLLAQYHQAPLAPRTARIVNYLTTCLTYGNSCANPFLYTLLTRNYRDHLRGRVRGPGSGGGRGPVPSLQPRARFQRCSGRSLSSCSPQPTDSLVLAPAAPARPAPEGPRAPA
As to the kind of experiment: PathHunter beta-arrestin recruitment assay in a recombinant reporter cell line, dose-response. The test is classed as cell-based.

The target of test [4] is T9, neuromedin receptor 1 (NMU1R) (Homo sapiens, UniProt Q9HB89).
T9 construct: gene NMUR1
T9 sequence (Q9HB89 1-426): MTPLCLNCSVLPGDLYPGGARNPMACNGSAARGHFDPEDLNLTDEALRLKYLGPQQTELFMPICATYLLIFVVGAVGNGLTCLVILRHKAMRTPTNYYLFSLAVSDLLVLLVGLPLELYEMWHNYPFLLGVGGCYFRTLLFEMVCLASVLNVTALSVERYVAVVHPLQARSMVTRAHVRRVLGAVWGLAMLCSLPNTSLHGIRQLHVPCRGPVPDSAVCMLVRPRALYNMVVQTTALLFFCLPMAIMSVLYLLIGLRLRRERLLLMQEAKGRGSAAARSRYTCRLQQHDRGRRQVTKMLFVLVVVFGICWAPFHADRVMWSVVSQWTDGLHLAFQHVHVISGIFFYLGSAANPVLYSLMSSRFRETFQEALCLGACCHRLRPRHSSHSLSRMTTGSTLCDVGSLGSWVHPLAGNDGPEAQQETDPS
The test is described as above. The test is classed as cell-based.

For a further test, the target named is HRH4 (Homo sapiens, UniProt Q9H3N8). As to the kind of experiment: PathHunter beta-arrestin recruitment assay in a recombinant reporter cell line, commercial standard, dose-response. The test is classed as cell-based.
Test [5] has as its target T1, GPR109B. Kind of test: PathHunter beta-arrestin recruitment assay in a recombinant reporter cell line, dose-response. The test is classed as cell-based.

T1 sequence (P49019 whole entry): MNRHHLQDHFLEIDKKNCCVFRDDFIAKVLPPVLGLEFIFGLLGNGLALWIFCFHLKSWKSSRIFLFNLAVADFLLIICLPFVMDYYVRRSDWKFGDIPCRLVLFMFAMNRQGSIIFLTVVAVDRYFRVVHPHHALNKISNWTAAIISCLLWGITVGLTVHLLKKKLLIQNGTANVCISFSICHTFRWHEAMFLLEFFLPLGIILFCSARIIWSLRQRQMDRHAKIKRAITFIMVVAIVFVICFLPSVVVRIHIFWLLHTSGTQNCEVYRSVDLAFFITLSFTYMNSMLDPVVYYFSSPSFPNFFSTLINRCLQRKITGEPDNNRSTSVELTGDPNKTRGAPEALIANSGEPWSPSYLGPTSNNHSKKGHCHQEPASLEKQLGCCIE
Chain of PTGIR (P43119 whole entry): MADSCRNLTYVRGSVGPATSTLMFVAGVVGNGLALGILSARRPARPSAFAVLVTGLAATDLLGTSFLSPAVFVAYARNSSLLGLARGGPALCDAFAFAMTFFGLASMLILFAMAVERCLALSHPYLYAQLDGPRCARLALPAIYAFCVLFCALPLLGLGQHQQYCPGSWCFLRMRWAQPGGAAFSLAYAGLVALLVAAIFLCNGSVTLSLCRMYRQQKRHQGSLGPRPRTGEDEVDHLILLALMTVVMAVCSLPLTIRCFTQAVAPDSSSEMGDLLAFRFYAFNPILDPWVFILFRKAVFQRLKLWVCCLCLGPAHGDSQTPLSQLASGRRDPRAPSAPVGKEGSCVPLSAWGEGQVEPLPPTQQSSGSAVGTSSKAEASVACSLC
Chain of HRH4 (Q9H3N8 whole entry): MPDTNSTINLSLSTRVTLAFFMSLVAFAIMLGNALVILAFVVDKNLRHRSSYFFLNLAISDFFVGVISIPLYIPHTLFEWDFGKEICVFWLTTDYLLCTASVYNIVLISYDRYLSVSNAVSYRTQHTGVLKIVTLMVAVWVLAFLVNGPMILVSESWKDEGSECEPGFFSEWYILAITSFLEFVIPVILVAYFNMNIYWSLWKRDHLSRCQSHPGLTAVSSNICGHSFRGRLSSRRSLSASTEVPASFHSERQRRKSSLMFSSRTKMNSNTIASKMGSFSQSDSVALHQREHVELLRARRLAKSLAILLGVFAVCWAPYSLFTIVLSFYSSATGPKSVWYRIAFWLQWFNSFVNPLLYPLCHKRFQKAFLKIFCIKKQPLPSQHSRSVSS
T7 sequence (P49190 whole entry): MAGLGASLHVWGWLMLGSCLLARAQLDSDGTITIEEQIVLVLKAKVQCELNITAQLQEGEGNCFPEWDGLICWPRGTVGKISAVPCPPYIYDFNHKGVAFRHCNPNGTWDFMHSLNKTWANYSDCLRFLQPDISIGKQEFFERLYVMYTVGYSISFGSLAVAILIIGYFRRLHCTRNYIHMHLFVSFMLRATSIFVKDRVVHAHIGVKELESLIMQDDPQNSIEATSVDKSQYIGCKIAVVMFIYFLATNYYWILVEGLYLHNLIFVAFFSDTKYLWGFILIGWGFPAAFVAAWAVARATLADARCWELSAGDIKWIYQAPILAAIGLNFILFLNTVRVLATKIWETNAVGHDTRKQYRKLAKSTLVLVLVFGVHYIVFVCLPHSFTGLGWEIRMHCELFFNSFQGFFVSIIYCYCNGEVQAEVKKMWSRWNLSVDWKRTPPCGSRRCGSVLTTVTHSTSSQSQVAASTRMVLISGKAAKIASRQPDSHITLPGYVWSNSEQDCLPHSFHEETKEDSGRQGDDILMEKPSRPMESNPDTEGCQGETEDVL
T2 sequence (P32249 whole entry): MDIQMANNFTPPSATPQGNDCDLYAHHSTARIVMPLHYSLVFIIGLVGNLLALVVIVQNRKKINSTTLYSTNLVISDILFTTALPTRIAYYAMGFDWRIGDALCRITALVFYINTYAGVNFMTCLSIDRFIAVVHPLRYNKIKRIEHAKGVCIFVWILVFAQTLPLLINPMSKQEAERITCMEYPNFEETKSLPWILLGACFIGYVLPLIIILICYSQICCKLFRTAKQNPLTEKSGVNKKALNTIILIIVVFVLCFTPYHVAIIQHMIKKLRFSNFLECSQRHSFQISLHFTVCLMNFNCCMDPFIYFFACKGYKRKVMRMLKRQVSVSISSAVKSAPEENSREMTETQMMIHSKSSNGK
Chain of KISS1R (Q969F8 whole entry): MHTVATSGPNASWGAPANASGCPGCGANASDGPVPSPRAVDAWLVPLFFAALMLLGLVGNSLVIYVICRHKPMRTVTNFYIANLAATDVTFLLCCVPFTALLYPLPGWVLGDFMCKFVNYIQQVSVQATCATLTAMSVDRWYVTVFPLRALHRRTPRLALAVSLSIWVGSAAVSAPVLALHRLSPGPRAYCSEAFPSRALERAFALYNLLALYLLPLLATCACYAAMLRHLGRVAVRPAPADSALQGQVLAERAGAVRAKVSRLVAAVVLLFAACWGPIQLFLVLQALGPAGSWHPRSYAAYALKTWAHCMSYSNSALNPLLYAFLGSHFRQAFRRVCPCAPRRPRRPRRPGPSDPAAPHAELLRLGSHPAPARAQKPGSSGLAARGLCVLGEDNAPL
Chain of FFAR1 (O14842 whole entry): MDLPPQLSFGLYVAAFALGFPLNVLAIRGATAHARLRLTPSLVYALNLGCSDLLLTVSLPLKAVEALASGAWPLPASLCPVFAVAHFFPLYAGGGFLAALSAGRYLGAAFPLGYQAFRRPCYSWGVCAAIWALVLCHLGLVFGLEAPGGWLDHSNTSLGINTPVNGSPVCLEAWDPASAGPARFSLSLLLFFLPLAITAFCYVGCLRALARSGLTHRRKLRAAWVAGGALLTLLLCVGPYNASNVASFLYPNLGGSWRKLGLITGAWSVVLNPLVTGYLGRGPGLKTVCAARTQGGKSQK
T3 sequence (O14514 31-1584): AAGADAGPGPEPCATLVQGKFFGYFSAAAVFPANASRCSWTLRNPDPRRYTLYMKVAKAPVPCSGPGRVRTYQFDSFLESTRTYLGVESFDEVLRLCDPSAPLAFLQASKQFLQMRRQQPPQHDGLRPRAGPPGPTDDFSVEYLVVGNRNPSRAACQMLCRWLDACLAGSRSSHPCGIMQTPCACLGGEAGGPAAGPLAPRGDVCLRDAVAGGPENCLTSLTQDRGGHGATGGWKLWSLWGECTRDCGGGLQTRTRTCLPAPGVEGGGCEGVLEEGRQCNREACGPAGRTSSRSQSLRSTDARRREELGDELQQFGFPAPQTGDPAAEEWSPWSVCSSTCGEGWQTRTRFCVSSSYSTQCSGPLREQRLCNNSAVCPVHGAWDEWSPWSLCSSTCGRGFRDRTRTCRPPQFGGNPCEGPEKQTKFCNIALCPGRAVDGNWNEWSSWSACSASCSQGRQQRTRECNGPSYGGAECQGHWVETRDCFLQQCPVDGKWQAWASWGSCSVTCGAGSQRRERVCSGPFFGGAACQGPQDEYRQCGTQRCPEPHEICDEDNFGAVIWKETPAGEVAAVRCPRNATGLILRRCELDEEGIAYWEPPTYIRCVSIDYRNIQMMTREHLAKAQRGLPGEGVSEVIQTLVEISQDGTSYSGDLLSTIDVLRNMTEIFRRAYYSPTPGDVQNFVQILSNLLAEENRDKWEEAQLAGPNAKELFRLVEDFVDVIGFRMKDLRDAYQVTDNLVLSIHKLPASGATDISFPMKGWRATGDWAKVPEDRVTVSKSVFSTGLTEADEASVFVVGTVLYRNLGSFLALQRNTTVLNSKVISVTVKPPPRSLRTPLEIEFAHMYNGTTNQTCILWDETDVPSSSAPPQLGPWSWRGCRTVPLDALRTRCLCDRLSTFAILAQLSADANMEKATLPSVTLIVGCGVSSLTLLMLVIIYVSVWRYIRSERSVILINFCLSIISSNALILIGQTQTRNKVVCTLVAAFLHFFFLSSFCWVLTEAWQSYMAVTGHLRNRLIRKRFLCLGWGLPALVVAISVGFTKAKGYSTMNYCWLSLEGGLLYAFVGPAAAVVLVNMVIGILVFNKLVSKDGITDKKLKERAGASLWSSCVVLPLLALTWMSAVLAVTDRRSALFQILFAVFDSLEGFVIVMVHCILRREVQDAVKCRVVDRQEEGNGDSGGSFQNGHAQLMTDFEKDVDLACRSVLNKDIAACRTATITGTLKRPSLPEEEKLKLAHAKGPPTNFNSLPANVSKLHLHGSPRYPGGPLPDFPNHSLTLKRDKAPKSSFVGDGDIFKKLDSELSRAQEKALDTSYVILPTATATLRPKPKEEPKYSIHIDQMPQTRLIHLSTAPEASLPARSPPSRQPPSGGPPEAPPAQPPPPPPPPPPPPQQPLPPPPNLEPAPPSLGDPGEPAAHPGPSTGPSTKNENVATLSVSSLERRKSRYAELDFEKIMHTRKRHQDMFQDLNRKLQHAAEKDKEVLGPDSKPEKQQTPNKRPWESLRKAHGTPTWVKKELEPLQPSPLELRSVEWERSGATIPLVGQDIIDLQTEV
Chain of OXER1 (Q8TDS5 whole entry): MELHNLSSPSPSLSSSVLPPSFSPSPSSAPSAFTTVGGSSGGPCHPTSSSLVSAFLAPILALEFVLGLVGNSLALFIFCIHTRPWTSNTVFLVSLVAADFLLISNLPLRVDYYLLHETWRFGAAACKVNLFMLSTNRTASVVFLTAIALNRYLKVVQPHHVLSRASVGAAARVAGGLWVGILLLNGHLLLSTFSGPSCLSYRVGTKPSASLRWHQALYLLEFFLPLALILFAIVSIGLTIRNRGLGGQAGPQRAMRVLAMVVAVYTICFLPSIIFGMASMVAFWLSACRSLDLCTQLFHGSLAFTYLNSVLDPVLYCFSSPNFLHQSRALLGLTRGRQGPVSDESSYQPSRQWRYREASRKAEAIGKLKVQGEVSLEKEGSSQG

Regarding `CC#CCC(C)[C@H](O)/C=C/[C@@H]1[C@H]2c3cccc(CCCC(=O)O)c3O[C@H]2C[C@H]1O` (mixture of isomers) [Beraprost], the pEC50 on PTGIR is 6.51.
On GPR109B [1], `CCCCCC(O)CC(=O)O` (stereo not drawn) [3-hydroxyoctanoic acid] had a pEC50 of 3.52.
Consider `CCCCC/C=C\C/C=C\C/C=C\C=C\C(=O)CCCC(=O)O` [5-OxoETE], for which the pEC50 on OXER1 was 6.16.
Take `C[C@H](CCCC(C)(C)O)[C@H]1CC[C@H]2[C@@H]3[C@H](O)C=C4C[C@@H](O)CC[C@]4(C)[C@H]3CC[C@]12C` [7a,25-Dihydroxycholesterol]: at EBI2, the pEC50 is 6.72.
As to `CCCCCCC1CC1CCCCCCCC(=O)O` (stereo not drawn) [9,10-methylenehexadecanoic acid, cis-9,10-methylenehexadecanoic acid], the pEC50 in test [2] was 4.96.
`C[C@@H](O)[C@@H]1NC(=O)[C@@H](CCCCN)NC(=O)[C@H](Cc2c[nH]c3ccccc23)NC(=O)[C@H](Cc2ccccc2)NC(=O)[C@H](Cc2ccccc2)NC(=O)[C@H](CC(N)=O)NC(=O)[C@H](CCCCN)NC(=O)[C@@H](NC(=O)[C@@H]2CCCN2)CSSC[C@@H](C(=O)N[C@@H](CCCCN)C(=O)O)NC(=O)[C@H](CO)NC(=O)[C@H](CO)NC(=O)[C@@H](Cc2ccccc2)NC1=O` [Cortistatin 14] (H-PCKNFFW[dK]T[dF]SSCK-OH; disulfide 2-13): at MRGPRX2, the pEC50 was 6.20.
`O=C(O)CCc1ccc(NCc2cccc(Oc3ccccc3)c2)cc1` [GW9508]: the pEC50 on FFAR1 is 6.54.
As for `CC(C)C[C@H](NC(=O)CNC(=O)[C@H](Cc1ccccc1)NC(=O)[C@H](CO)NC(=O)[C@H](CC(N)=O)NC(=O)[C@H](Cc1c[nH]c2ccccc12)NC(=O)[C@H](CC(N)=O)NC(=O)[C@@H](N)Cc1ccc(O)cc1)C(=O)N[C@@H](CCCNC(=N)N)C(=O)N[C@@H](Cc1ccccc1)C(N)=O` [Kisspeptin-10], the pEC50 on KISS1R was 7.93.
On to `CCCCCCCC/C=C\CCCCCCCC(=O)NCCO` [Oleoyl Ethanolamide], for which the pEC50 at GPR119 was 5.76.
`CCCCC[C@H](O)/C=C/[C@H]1C(=O)C[C@H](O)[C@@H]1C/C=C\CCCC(=O)O` [PGD2]: the pEC50 at CRTH2 is 7.71.
As to `CCCCC#CCCCCCCCC(=O)OC` [TIP-39], the pEC50 on PTHR2 was 9.07.
As to `CCC(C)CCCCCCCCCCC(=O)O` (stereo not drawn) [aiC15:0, 12-methyltetradecanoic acid], the pEC50 in test [3] was 3.72; in [4] it was 3.90.
Turning to `NCCCCCN` [cadaverine], on HRH4, the pEC50 was 5.96.
For the compound `O=C(O)CCc1ccccc1` [phenylpropanoic acid], on GPR109B [5], the pEC50 is 3.68.
